Reference: patent US20080280764A1, “Method of Desiccating and/or Defoliating Glyphosate Resistant Crops” (priority 2005, published 2008)

Test system: Glyphosate resistant cotton
Test: Field test: defoliation and desiccation of glyphosate resistant cotton
Format: in vivo
Conditions: post-emergence spray, scale 0-100% vs untreated plots
Procedure: In the examples below, the value E which is to be expected if the activity of the individual compounds is just additive was calculated using the method of S. R. Colby (1967) “Calculating synergistic and antagonistic responses of herbicide combinations”, Weeds 15, p. 22 ff.
where X=effect in percent using active compound A at an application rate a; Y=effect in percent using active compound B at an application rate b; E=expected effect (in %) of A+B at application rates a+b.
If the experimentally determined value is higher than the value E calculated according to Colby's equation, a synergistic effect is present.
The phenyluracils I and/or the other active ingredients according to the present invention were formulated in a suitable way, either separately or in mixture, e.g. as emulsifiable concentrates (EC), soluble concentrates (SL), suspo-emulsions (SE), suspension concentrates (SC) or water-dispersible granules (WG). The formulation(s) were suspended or emulsified in water as a distribution medium immediately prior to spraying. Afterwards, the aqueous mixture was evenly sprayed on the test plots by means of finely distributing nozzles.
The test plots of rows of fully mature crop plants at the beginning of leaf fall were of uniform size (typically between 14 and 37 square meters, each) and the distribution of treated and untreated plots was organized according to a randomised bloc design. The plots were treated post-emergence, i.e. the aqueous mixture as described above was sprayed on the crop plants.
The evaluation of the defoliation or desiccation caused by the phenyluracils I and/or the other active ingredients according to the present invention was carried out using a scale from 0 to 100%, compared to the untreated control plots. Here, 0 means no defoliation or desiccation and 100 means complete defoliation of the crop plants, or complete desiccation of the leaves of the crop plant.
Defoliation and Desiccation of Glyphosate Resistant Cotton by the Phenyluracil 1.7 Alone as Well as by a Mixture of the Phenyluracil 1.7 and Glyphosate; Field Test
In this example, glyphosate (isopropylammonium salt) was formulated as a 360 g/l SL and Phenyluracil 1.7 as a 120 g/l EC. Prior to application, the formulated active ingredients were tank-mixed with an aqueous 140 l/ha spray solution which contained, in addition, 10 g/l of Agridex.

[1] = use rate Phenyluracil I.7 12.5 g/ha

Row | SMILES | Glyphosate resistant cotton defoliation at 4 DAT (% defoliation), Found (use rate glyphosate 840 g/ha) | Glyphosate resistant cotton desiccation at 4 DAT (% desiccation), Found (use rate glyphosate 840 g/ha) | Glyphosate resistant cotton defoliation at 4 DAT (% defoliation), Found [1] | Glyphosate resistant cotton desiccation at 4 DAT (% desiccation), Found [1]
1 | O=C(O)CNCP(=O)(O)O [Glyphosate, glyphosate] | 0% | 3% | – | –
2 | CC(C)N(C)S(=O)(=O)NC(=O)c1cc(-n2c(=O)cc(C(F)(F)F)n(C)c2=O)c(F)cc1Cl [I.7] | – | – | 13% | 63%
